Results from patent EP0302407A2, “Metallic complexes of streptogramin-B, their preparation and their use in animal food” (HOECHST AKTIENGESELLSCHAFT, priority 1987, dated 1989).
Marks after values point to notes of the source that are not given here.

What was measured:
Format in all cases: in vivo
Mastküken = assay: Feeding trial with broiler chicks, Beispiel III (6 weeks); details: 10 mg/kg Futter (ppm)
Text: (§1) Der Versuch lief über 6 Wochen. Futter und Trinkwasser wurden nach Belieben angeboten. Die Tiere wurden wöchentlich einzeln gewogen, die Lebendmasse(LM)-Zunahmen errechnet, die Futteraufnahme bestimmt und aus Futteraufnahme : LM-Zunahme der Futteraufwand errechnet. Die Mortalität wurde erfaßt und aus all diesen Parametern die Produktionszahl (PZ) errechnet. [formula]
In einem weiteren Mastküken-Versuch wurde der Einfluß von Etamycin-Zn-Komplex gemäß Beispiel 4 in einer Dosierung von 10 ppm im Vergleich zu einer Negativ-Kontrolle wie im Beispiel I geprüft. Zum Einsatz kamen 36 Mastküken (6 Wiederholungen x 6 Tiere), bei einer Versuchszeit von 6 Wochen. Haltungs- und Fütterungsbedingungen waren die gleichen wie im Beispiel I.

männlichen Mastküken [1] = assay: Feeding trial with broiler chicks, Beispiel IV (5 weeks); details: for Mortalität: 50400 min
Text: as §1
Mit 96 männlichen Mastküken wurde in 3 Gruppen zu je 32 Mastküken (4 Wiederholungen x 8 Tiere) über 5 Wochen der Einfluß des Etamycin-Mn-Komplexes gemäß Beispiel 10 in Dosierungen von 5 und 10 ppm im Vergleich zu einer Negativ-Kontrolle (ohne Zusatz) geprüft. Die Haltungs- und Fütterungsbedingungen sowie die Auswertung waren die gleichen wie in Beispiel I.

[2] = test system: männlichen Mastküken (Lohmann); assay: Feeding trial with broiler chicks, Beispiel II (42 days)
Text: as §1
In einem Mastküken-Versuch über 42 Tage wurde mit 144 männlichen Mastküken (Lohmann) 3 x 48 Küken (8 Wiederholungen x 6 Tiere) der Einfluß von Etamycin-Cu-Komplex gemäß Beispiel I in Dosierungen von 5 und 10 ppm gegenüber Negativ-Kontrollen ohne Zusatz geprüft. Haltung und Fütterung waren die gleichen wie in Beispiel I.

männlichen Mastküken [3] = assay: Feeding trial with broiler chicks, Beispiel I (6 weeks); details: for Mortalität: 60480 min
Text: Ein Fütterungsversuch mit Etamycin-Cu-Komplex gemäß Herstellungsbeispiel 2 wurde mit 120 männlichen Mastküken in 3 Gruppen zu je 40 Küken durchgeführt, die in beheizten Batterien (5 Küken bei 8 Wiederholungen) gehalten wurden. Folgende Präparate und Dosierungen wurden eingesetzt:
Das Grundfutter hatte eine handelsübliche Zusammensetzung mit 13,0 MJ/kg = 3100 kcal/kg und einem Rohproteingehalt von 22 %, bei einem normgerechten Aminosäuren-, Vitamin-, Mineralstoff- und Spurenelementgehalt.
as §1

[4] = 5 mg/kg Futter (ppm), Futteraufnahme : LM-Zunahme
[5] = 5 mg/kg Futter (ppm), control = 100
[6] = 10 mg/kg Futter (ppm), Futteraufnahme : LM-Zunahme
[7] = 10 mg/kg Futter (ppm), control = 100
[8] = 20 mg/kg Futter (ppm), control = 100

Etamycin-Zn(II)-komplex (Et₂ x Zn(II)) [Etamycin-Zn-Komplex]
Futteraufnahme (Mastküken): 3041 g | LM-Zunahme (Mastküken): 1748 * g | Produktionszahl (Mastküken): 228 | Mortalität (Mastküken; 60480 min): 5,6% | Futteraufwand (Mastküken; Futteraufnahme : LM-Zunahme): 1,74 | Futteraufnahme (Mastküken; control = 100): 102,5 rel.% | Futteraufwand (Mastküken; control = 100): 93,5 rel. % | LM-Zunahme (Mastküken; control = 100): 109,4 rel.%

Etamycin-Mangan (II)-komplex Et₂ x Mn(II) [Etamycin-Mn-Komplex]
Futteraufnahme (männlichen Mastküken [1]; 5 mg/kg Futter (ppm)): 2334 g | LM-Zunahme (männlichen Mastküken [1]; 5 mg/kg Futter (ppm)): 1394 * g | Produktionszahl (männlichen Mastküken [1]; 5 mg/kg Futter (ppm)): 222 | Mortalität (männlichen Mastküken [1]; 5 mg/kg Futter (ppm)): 0% | Futteraufwand (männlichen Mastküken [1]; [4]): 1,67 | Futteraufnahme (männlichen Mastküken [1]; [5]): 100 rel.% | Futteraufwand (männlichen Mastküken [1]; [5]): 93,8 rel. % | LM-Zunahme (männlichen Mastküken [1]; [5]): 106,4 rel.% | Futteraufnahme (männlichen Mastküken [1]; 10 mg/kg Futter (ppm)): 2413 g | LM-Zunahme (männlichen Mastküken [1]; 10 mg/kg Futter (ppm)): 1419 * g | Produktionszahl (männlichen Mastküken [1]; 10 mg/kg Futter (ppm)): 222 | Mortalität (männlichen Mastküken [1]; 10 mg/kg Futter (ppm)): 0% | Futteraufwand (männlichen Mastküken [1]; [6]): 1,70 | Futteraufnahme (männlichen Mastküken [1]; [7]): 103,4 rel.% | Futteraufwand (männlichen Mastküken [1]; [7]): 95,5 rel. % | LM-Zunahme (männlichen Mastküken [1]; [7]): 108,3 rel.%

Etamycin-Kupfer-(II)-komplex (Et₂ x Cu(II)) [Etamycin-Cu-Komplex]
Futteraufnahme ([2]; 5 mg/kg Futter (ppm)): 3260 g | LM-Zunahme ([2]; 5 mg/kg Futter (ppm)): 1699 * g | Mortalität ([2]; 5 mg/kg Futter (ppm)): 2,1% | Produktionszahl ([2]; 5 mg/kg Futter (ppm)): 207 | Futteraufwand [2, 4]: 1,92 | Futteraufnahme [2, 5]: 106,3 rel.% | Futteraufwand [2, 5]: 97,5 rel. % | LM-Zunahme [2, 5]: 109,0 rel.% | Futteraufnahme ([2]; 10 mg/kg Futter (ppm)): 3099 g | LM-Zunahme ([2]; 10 mg/kg Futter (ppm)): 1673 * g | Mortalität ([2]; 10 mg/kg Futter (ppm)): 6,3% | Produktionszahl ([2]; 10 mg/kg Futter (ppm)): 202 | Futteraufwand [2, 6]: 1,85 | Futteraufnahme [2, 7]: 101,0 rel.% | Futteraufwand [2, 7]: 93,9 rel. % | LM-Zunahme [2, 7]: 107,3 rel.% | Futteraufnahme (männlichen Mastküken [3]; 5 mg/kg Futter (ppm)): 2561 g | LM-Zunahme (männlichen Mastküken [3]; 5 mg/kg Futter (ppm)): 1439 * g | Produktionszahl (männlichen Mastküken [3]; 5 mg/kg Futter (ppm)): 154 | Mortalität (männlichen Mastküken [3]; 5 mg/kg Futter (ppm)): 20% | Futteraufwand (männlichen Mastküken [3]; [4]): 1,78 | Futteraufnahme (männlichen Mastküken [3]; [5]): 101,2 rel.% | Futteraufwand (männlichen Mastküken [3]; [5]): 92,7 rel. % | LM-Zunahme (männlichen Mastküken [3]; [5]): 109,0 rel.% | Futteraufnahme (männlichen Mastküken [3]; 20 mg/kg Futter (ppm)): 2644 g | LM-Zunahme (männlichen Mastküken [3]; 20 mg/kg Futter (ppm)): 1442 * g | Produktionszahl (männlichen Mastküken [3]; 20 mg/kg Futter (ppm)): 173 | Mortalität (männlichen Mastküken [3]; 20 mg/kg Futter (ppm)): 7,5% | Futteraufwand (männlichen Mastküken [3]; 20 mg/kg Futter (ppm), Futteraufnahme : LM-Zunahme): 1,83 | Futteraufnahme (männlichen Mastküken [3]; [8]): 104,5 rel.% | Futteraufwand (männlichen Mastküken [3]; [8]): 95,3 rel. % | LM-Zunahme (männlichen Mastküken [3]; [8]): 109.2 rel.%
